In article PMC10452181, “Synthesis and Biological Evaluation of Cyclobutane-Based β3 Integrin Antagonists: A Novel Approach to Targeting Integrins for Cancer Therapy” (Cancers, 2023):
Where two headings read alike, the source gives them in different places.

Key:
[1] = target: T1, αvβ3 (Homo sapiens, UniProt P05106+P06756); test: Sk-Mel-2 cell adhesion to immobilised fibronectin (cell-binding assay, MTT readout); assay type: cell-based; conditions: Sk-Mel-2 adhesion to Fn, mean ± SD
T1 construct: endogenous in cells; host or cells: SK-Mel-2 melanoma cells
Method: First, 96-well plates (Corning, VWR) were coated overnight at 4 °C with 0.5 μg/well fibronectin (Sigma). SK-Mel-2 cells were trypsinised, washed and resuspended in RPMI medium only at 10^5 cells/mL. Cells (100 µL/well) were treated with compound (DMSO final concentration 0.1%) at the indicated concentration for 4 hrs on a rotary shaker. Plates were washed (3 × PBS) and blocked with PBS/5% BSA for 2 hrs at 37 °C prior to adding the cells. Cells were incubated on the plates at 37 °C in a humidified chamber with 5% CO2 for 1 hr. The plates were washed 3× with PBS and a 200 µL/well RPMI medium containing 10% FCS added. The plates were incubated overnight at 37 °C as above. Finally, 0.5 mg/mL of 3-(4,5-dimethythiazol-2-yl)-2,5-diphenyl tetrazolium bromide (MTT) was added to each well and the plates incubated for a further 4 h. The medium was removed, and the insoluble formazan dissolved in 150 µL of DMSO. Absorbance was measured at 540 nm using a Thermo Multiskan EX (Thermofisher, UK)and Ascent Software (v2.6). Total binding was determined based on controls lacking any compounds (100% binding) in fibronectin-coated wells and uncoated wells blocked with BSA (0% binding) and corrected for background (no cells, fibronectin-coated).
As an initial test of anti-β3 activity, the ability of compounds to inhibit the adhesion of melanoma cells expressing high levels of αvβ3 and low levels of other RGD-binding integrins such as αvβ5 and α5β1 to immobilised fibronectin was evaluated.
Cells were seeded onto precoated plates in the presence or absence of putative antagonists and the number of adherent cells quantified colorimetrically.

[2] = system: M14 cells; test: cells; assay type: cell-based, human; conditions: M14 scratch wound, 24 h, mean ± SD; read-out: Migration IC50
Method: M14 cells (4 × 10^5/mL in RPMI 1640 medium) were seeded in six-well plates and incubated at 37 °C in a 5% CO2 humidified atmosphere for 48 h. The resulting confluent monolayer was scratched with a sterile P200 pipette tip to create a gap (approximately 2 cm in length and 650 μm in width) in the centre of the well. The medium was removed, and the cells washed with Hank’s balanced salt solution (HBSS) (1 mL) and replaced with a medium containing the test antagonist. After 24 h, the cells were washed twice with HBSS and fixed with ice-pre-cooled methanol for thirty minutes at −20 °C. Following hydration with two washes in PBS, the monolayers were counterstained with Harris’s haematoxylin solution for two minutes, then washed in tap water for one minute and left to dry at room temperature. The plates were observed using an inverted microscope, and digital images captured.
The anti-αvβ3 activity of selected compounds was confirmed in a wound-healing assay (Figure 3). A number of cell lines were initially investigated for their suitability in this assay. The Sk-Mel-2 cell line which adhered well to fibronectin in the adhesion assay migrated very slowly; therefore, M14 melanoma cells which combined high levels of αvβ3 with rapid migration and low levels of proliferation over the assay period (Supplementary Figure S4) were selected.

[3] = system: Sk-Mel-2; test: in vitro; assay type: cell-based, human
Method: (§1) Before use in cell-based assays of integrin function, the effect of compounds on cell proliferation was tested using the MTT assay to avoid adhesion results being confounded by cell death (Supplementary Table S1). The effect of compounds on cell adhesion was then initially tested at a single, nontoxic concentration to identify active antagonists for further characterisation; those displaying a promising activity in the adhesion assay were tested at a wider range of concentrations to determine the IC50 (Table 2). […] Nevertheless, it is a cost-effective initial screening method. page 4: Table S1. Cytotoxicity of compounds on the cell lines used in the functional assays (measured by MTT assay). Cells (2000 cells/well for Sk-Mel-2; 1 x 10^4 cells/mL for M14) were incubated for 96 hours at 37 ° C in a total volume of 200 μL/well (180 μL medium + 20 μ L test compound solution). After 96 hours, the medium was replaced by fresh medium containing 0.5 mg/ml (end conc.) MTT per well, incubated for 4 h then the plate processed and read as described in the main text. […] ICT9053 41 naphthyridine 1 NHSO2Mes H Ester 52.6 ± 0.6 72.7 ± 9.8 ICT9065 42 naphthyridine 1 H H Ester >100 - ICT9079 43 naphthyridine 0 NHSO2Mes H Ester ~100 - ICT9061 44 naphthyridineT 1 NHSO2Mes H Ester 46.8 ± 10.7 - […] Ester 65.4 ± 11.1 >100 […] Ester 9.6 ± 5.7 >100 […] Ester >100 - […] Ester 54.6 ± 11.0 - […] Ester >5 3.3 ± 0.8 […] ICT9028 51 pyrimidine 2 NHSO2Ph H Acid >100 - ICT9031 52 pyrimidineT 1 NHSO2Mes H Acid >100 - ICT9090 53 pyrimidineT 2 NHSO2Mes H Acid >50 - ICT9029 54 pyrimidineT 2 NHSO2Ph H Acid >100 - ICT9063 55 naphthyridine 1 NHSO2Mes H Acid 61.7 ± 2.8 - […] Acid 45.5 ± 7.9 >100 […] 42.5 ± 1.8 >50 RGDS >50 - T trans configuration of cyclobutane sidechains.

[4] = system: M14; test: Cytotoxicity by MTT assay, 96 h, M14; assay type: cell-based, human; conditions: MTT, 96 hours
Method: as §1

[5] = target: T2, αIIbβ3 (Homo sapiens, UniProt P05106+P08514); test: αIIbβ3/fibrinogen purified protein binding ELISA; conditions: for IC50: read-out: IC50 (αIIbβ3/Fg)
T2 construct: purchased Sigma
Method: ELISA assays were performed as previously described with minor modifications. Briefly, serial dilutions of compounds were prepared in dimethyl sulfoxide (DMSO). C8 Maxi Immuno modules (Fisher Scientific) were incubated overnight at 4 °C with 0.5 μg/well of fibrinogen (Sigma) in sterile phosphate buffered saline (PBS, 0.2 g/L KCl, 8.0 g/L NaCl, 0.2 KH2PO4, 1.15 g/L Na2HPO4, pH 7.4). All subsequent wash steps were performed using 25 mM Tris, pH 7.6, 150 mM NaCl, 1 mM MnCl2, 1 mg/mL BSA, and binding/inhibition was carried out in 25 mM Tris, pH 7.6, 150 mM NaCl, 1 mM MnCl2, 1 mM MgCl2, 1 mM CaCl2, 1 mg/mL BSA.
Wells were washed and blocked with a blocking solution (PBS, 0.1% Tween 20, 3% BSA) for 1 h at 37 °C. Compounds were added to the wells at indicated concentrations (final 0.5% DMSO) in the presence of 0.5 µg/well αIIbβ3 (Sigma) and incubated at room temp for 1 h. After 3 washes, primary anti-αIIb (1:200 dilution, Santa Cruz Biotech, Heidelberg, Germany) and antigoat–HRP (1:500 dilution, Dako, Agilent, Santa Clara, CA, USA) were added at room temp for 1 h. The wells were washed and incubated with 0.1 mg/mL tetra-methylbenzidine (Sigma) for 25 min and the reaction was stopped with 1N H2SO4 (100 μL/well). The absorbance was measured at 450 nm using a Multiscan Spectrum reader (Thermo Scientific, Thermofisher, UK) and SkanIT RE (v2.4.4.5) software. Results were plotted as percent binding vs. log concentration and IC50 values determined.

[6] = system: platelet aggregation; test: ADP-induced platelet aggregation in hirudin-treated whole blood (ex vivo); assay type: cell-based, human; conditions: for % Inhibition (Platelet Aggregation) @ 100 μM: ADP 6.4 μM
Method: 2.7. Platelet Aggregation Assay
Platelet aggregation was measured in hirudin-anticoagulated whole blood from a healthy donor with ADP as agonist (end concentration 6.4 μM) using a Multiplate® impedance aggregometer (Dynabyte Informationssysteme GmbH, Munich, Germany). At 37 °C, cells were charged with 300 μL of saline, 300 μL of blood, 1 μL of compound (0.1% DMSO) and incubated for 3 min. The agonist was added and the increase in electrical impedance measured from 2 electrode pairs/cell for 6 min, transformed into arbitrary units (AU), and the area under the curve was calculated.

T2 sequence (P08514 32-887 limits assumed): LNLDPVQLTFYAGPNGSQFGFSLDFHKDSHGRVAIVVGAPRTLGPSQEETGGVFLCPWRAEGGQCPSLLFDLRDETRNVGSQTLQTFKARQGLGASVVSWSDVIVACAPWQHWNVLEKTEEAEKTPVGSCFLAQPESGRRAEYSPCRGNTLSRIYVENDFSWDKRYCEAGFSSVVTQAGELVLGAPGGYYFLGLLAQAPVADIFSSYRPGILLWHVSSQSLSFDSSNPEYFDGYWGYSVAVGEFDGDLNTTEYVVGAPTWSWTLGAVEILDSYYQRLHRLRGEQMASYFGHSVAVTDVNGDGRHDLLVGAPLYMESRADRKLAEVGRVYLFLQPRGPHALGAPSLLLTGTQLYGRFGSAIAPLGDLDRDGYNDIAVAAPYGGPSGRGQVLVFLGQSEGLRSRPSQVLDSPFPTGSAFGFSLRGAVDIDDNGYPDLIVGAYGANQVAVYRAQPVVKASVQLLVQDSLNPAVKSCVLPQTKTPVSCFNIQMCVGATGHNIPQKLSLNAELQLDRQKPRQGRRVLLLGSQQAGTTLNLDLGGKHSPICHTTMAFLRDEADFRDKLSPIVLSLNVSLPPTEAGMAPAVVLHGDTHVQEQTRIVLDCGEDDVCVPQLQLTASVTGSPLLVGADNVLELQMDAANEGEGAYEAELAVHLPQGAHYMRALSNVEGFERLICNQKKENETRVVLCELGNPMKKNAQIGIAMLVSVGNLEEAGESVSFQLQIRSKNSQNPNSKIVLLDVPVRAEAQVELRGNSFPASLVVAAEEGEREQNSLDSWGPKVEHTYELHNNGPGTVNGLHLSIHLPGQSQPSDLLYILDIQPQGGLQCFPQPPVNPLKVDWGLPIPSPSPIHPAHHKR
T2 sequence (P08514 891-1039 partner limits assumed): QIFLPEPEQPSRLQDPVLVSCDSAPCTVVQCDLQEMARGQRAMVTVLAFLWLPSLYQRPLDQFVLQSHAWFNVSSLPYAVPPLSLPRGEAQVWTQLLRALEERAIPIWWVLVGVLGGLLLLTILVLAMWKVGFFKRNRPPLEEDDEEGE
T2 sequence (P05106 27-788): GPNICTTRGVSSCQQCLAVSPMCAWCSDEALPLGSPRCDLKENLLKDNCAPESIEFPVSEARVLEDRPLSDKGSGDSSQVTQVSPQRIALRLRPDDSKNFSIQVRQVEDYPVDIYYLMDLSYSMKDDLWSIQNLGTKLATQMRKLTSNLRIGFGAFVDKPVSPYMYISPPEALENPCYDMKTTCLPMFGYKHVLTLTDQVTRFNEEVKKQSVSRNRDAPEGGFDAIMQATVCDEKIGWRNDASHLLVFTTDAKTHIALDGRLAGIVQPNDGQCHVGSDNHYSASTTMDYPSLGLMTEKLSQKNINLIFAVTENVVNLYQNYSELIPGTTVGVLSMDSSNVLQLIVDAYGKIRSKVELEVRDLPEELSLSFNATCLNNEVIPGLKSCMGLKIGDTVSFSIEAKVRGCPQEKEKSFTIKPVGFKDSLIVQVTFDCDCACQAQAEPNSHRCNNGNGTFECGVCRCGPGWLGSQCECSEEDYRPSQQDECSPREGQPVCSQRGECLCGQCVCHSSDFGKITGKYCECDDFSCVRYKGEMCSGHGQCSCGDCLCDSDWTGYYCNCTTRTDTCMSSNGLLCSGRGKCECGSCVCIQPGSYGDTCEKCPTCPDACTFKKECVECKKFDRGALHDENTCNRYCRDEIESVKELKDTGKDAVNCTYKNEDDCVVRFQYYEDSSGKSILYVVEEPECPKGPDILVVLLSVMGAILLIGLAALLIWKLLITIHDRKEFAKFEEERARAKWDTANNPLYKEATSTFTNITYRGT
T1 sequence (P06756 31-889 limits assumed): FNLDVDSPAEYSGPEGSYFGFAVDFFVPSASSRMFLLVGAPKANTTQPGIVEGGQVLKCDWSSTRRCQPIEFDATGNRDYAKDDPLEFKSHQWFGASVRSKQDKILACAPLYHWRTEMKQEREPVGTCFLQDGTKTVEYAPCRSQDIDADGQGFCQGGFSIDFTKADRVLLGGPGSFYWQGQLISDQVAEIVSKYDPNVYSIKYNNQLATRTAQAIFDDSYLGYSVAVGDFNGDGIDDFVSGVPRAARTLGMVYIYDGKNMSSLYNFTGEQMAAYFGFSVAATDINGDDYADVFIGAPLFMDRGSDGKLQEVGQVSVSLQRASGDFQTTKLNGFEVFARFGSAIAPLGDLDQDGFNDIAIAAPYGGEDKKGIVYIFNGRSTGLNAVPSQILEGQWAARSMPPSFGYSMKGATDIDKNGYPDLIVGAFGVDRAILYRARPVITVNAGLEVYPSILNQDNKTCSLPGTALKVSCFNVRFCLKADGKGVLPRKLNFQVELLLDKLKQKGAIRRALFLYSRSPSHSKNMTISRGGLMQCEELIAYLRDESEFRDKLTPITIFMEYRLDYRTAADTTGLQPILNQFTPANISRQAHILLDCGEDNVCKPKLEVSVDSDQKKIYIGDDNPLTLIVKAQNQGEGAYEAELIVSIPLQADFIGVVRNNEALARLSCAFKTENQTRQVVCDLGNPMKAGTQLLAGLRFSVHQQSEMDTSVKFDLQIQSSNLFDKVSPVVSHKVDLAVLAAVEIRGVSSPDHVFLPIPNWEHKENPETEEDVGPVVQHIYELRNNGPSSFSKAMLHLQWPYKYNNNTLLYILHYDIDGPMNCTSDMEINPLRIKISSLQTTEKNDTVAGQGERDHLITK
T1 sequence (P06756 891-1048 partner limits assumed): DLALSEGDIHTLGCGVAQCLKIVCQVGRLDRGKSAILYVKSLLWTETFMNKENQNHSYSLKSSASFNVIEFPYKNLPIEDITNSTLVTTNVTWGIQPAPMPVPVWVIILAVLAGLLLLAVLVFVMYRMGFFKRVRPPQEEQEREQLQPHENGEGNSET
T1 sequence (P05106 27-788): as the sequence (P05106 27-788) above

Structure (SMILES)	Adhesion % Inhibition @ 5 μM [1]	IC50 [2]	IC50 [3]	IC50 [4]	IC50 ([5]; positive control)	% Inhibition (Platelet Aggregation) @ 100 μM [6]	IC50 ([6]; ADP-induced)	Adhesion % Inhibition @ 50 μM [1]	IC50 [1]	IC50 ([5]; mean ± SD)	% Inhibition (αIIbβ3/Fg) @ 50 μM ([5]; mean ± SD)
COC(=O)[C@H](CNC(=O)[C@H]1C[C@H](CCCCNc2ncccn2)C1)NS(=O)(=O)c1c(C)cc(C)cc1C [ICT9018 26, (S)-methyl 3-((1r,3r)-3-(4-(pyrimidin-2-ylamino)butyl)cyclobutanecarboxamido)-2-(2,4,6-trimethylphenylsulfonamido)propanoate]	20.9 ± 27.5%	> 10 µM	72 ± 6.5 µM	> 100 µM							
Cl.Cl.Cl.N=C(N)c1ccc(N2CCN(C3CCN(CC(=O)O)CC3)CC2)cc1 [GR144053, reference compound]					0.0237 ± 0.0031 µM	100%	0.24 µM				
Cc1cc(C)c(S(=O)(=O)N[C@@H](CNC(=O)[C@H]2C[C@@H](CCCNc3ncccn3)C2)C(=O)O)c(C)c1 [ICT9090 53, (S)-3-((1s,3s)-{3-[3-(Pyrimidin-2-ylamino)-propyl]-cyclobutanecarbonyl}-amino)-2-(2,4,6-trimethyl-benzenesulfonylamino)-propionic acid]			> 50 µM			21.2 ± 7.8%		68.9 ± 10.9%	11 ± 11.6 µM	0.39 ± 0.19 µM	
Cc1cc(C)c(S(=O)(=O)N[C@@H](CNC(=O)C2CC(CCc3ccc4cccnc4n3)C2)C(=O)O)c(C)c1 (stereo partly drawn) [ICT9063 55, (S)-3-{(1r,3r)-[3-(2-[1, 8] Naphthyridin-2-yl-ethyl)-cyclobutanecarbonyl]-amino}-2-(2,4,6-trimethyl-benzenesulfonylamino)-propionic acid]	20.7 ± 11.9%		61.7 ± 2.8 µM			13.0%			> 5 µM	4.1 ± 2.2 µM	84.5 ± 8.6%
COC(=O)[C@H](CNC(=O)C1CC(CCNc2ncccn2)C1)NS(=O)(=O)c1c(C)cc(C)cc1C (stereo partly drawn) [ICT9019 21, (S)-Methyl 3-((1s,3r)-3-(2-(pyrimidin-2-ylamino)ethyl)cyclobutanecarboxamido)-2-(2,4,6-trimethylphenylsulfonamido)propanoate]	35.2 ± 19.1%	9.5 ± 0.9 µM	53.8 ± 3.2 µM	> 100 µM				48.3 ± 4.1%	50 ± 5 µM		15.6 ± 14.5%
COC(=O)[C@H](CNC(=O)[C@H]1C[C@H](CCCNc2ncccn2)C1)NS(=O)(=O)c1c(C)cc(C)cc1C [ICT9020 24]	19.1 ± 14.2%	> 10 µM	57.8 ± 1.9 µM	36 ± 18.6 µM							
COC(=O)[C@H](CNC(=O)[C@H]1C[C@@H](CCc2ccc3c(n2)NCCC3)C1)NS(=O)(=O)c1c(C)cc(C)cc1C [ICT9062 49, (S)-methyl 3-((1s,3s)-3-(2-(5,6,7,8-tetrahydro-1,8-naphthyridin-2-yl)ethyl)cyclobutanecarboxamido)-2-(2,4,6-trimethylphenylsulfonamido)propanoate]	72.3 ± 9.4%	0.15 ± 0.03 µM	> 5 µM	3.3 ± 0.8 µM							
COC(=O)[C@H](CNC(=O)[C@H]1C[C@H](CCc2ccc3cccnc3n2)C1)NS(=O)(=O)c1c(C)cc(C)cc1C [ICT9053 41, (S)-methyl 3-((1r,3r)-3-(2-(1,8-naphthyridin-2-yl)ethyl)cyclobutanecarboxamido)-2-(2,4,6-trimethylphenylsulfonamido)propanoate]	27.5 ± 32.9%	> 10 µM	52.6 ± 0.6 µM	72.7 ± 9.8 µM					> 5 µM	> 100 µM	29.4 ± 17.6%
Cc1cc(C)c(S(=O)(=O)N[C@@H](CNC(=O)C2CC(CCNc3ncccn3)C2)C(=O)O)c(C)c1 (stereo partly drawn) [ICT9031 52, (S)-3-((1r,3s)-3-(2-(pyrimidin-2-ylamino)ethyl)cyclobutanecarboxamido)-2-(2,4,6-trimethylphenylsulfonamido)propanoic acid]			> 100 µM			11.1%		11.1 ± 2.4%	> 50 µM	1.7 ± 2.4 µM	96.2 ± 6.3%
COC(=O)[C@H](CNC(=O)C1CC(CCc2ccc3c(n2)NCCC3)C1)NS(=O)(=O)c1ccccc1 (stereo partly drawn) [ICT9057 45, (S)-methyl 2-(phenylsulfonamido)-3-((1r,3r)-3-(2-(5,6,7,8-tetrahydro-1,8-naphthyridin-2-yl)ethyl)cyclobutanecarboxamido)propanoate]	59.5 ± 24.0%	1 ± 0.09 µM	65.4 ± 11.1 µM	> 100 µM							
